Measurements taken from ChEMBL document CHEMBL3507680, “University of Dundee, Gates Library screen for HepG2 cell viability”.

experiment: Human HepG2 cell viability assay in 384 well format; format: toxicity, cell-based; design: dose 125 nL, time 70.5 hour; cytotoxicity at 70.5 h: concentration not given beside the values; details: HepG2 cells, read-out: Inhibition

| Compound | cytotoxicity at 70.5 h [%] |
| --- | --- |
| Cc1ccc(N2C[C@H](O)[C@@H](N3CCN(c4ccccn4)CC3)C2)nn1 | -11.3 |
| CCn1ncnc1CN1CCC(CNC(=O)c2ccccc2C#N)C1 (configuration not stated) | 0.027 |
| CCC(=O)Nc1nnc(CCOc2ccc(OC)cc2)s1 | 3.07 |
| CCN(Cc1csc(CS(C)(=O)=O)n1)c1cccc(CO)c1 | -6.41 |
| Fc1ccccc1Cn1c(C2CCNCC2)cc2cccnc21 | -4.77 |
| COCCN1CCCC1c1nccnc1Nc1ncc(C)s1 (configuration not stated) | -1.57 |
| COCC1CCN(C(=O)c2cccc(S(=O)(=O)NCC3(C)COC3)c2)C1 (configuration not stated) | -3.93 |
| CCOc1ccc(S(=O)(=O)NCc2cccnc2N(C)C)cc1 | 52.9 |
| Cc1nnc2n1CCN(C(=O)CN1C(=O)CSc3ccccc31)C2 | -3.59 |
| CCOCCC(=O)N1CCCC(c2cc(C(F)(F)F)[nH]n2)C1 (configuration not stated) | -10.6 |
| Cc1nc(C2CCCN(C(=O)c3cccc4c3OCO4)C2)no1 (configuration not stated) | -4.51 |
| CCc1ccccc1Nc1noc2c1CN(C(=O)C1CCCO1)CC2 (configuration not stated) | -3.46 |
| Cc1ccc(-n2nnnc2C2(NCc3ccco3)CCCC2)cc1 | -13.6 |
| COCCNC(=O)c1nn(-c2cccc(C(C)C)c2)cc1O | 41.1 |
| COC(=O)CCC(=O)Nc1ccc(Br)c(C)n1 | -0.954 |
| Cn1nccc1-c1nnn2c1COC(CNCc1nccs1)C2 (configuration not stated) | 0.565 |
| Cc1ccc([C@@H]2CN(C(=O)CCc3cc(Cl)no3)C[C@H]2N(C)C)cc1 | 11.1 |
| CCCNC(=O)Nc1ccn(CCCOC)n1 | 9.71 |
| Cc1c(C(=O)NS(=O)(=O)c2ccsc2)cnn1CC(C)C | 4.87 |
| CN1CC(C(=O)NC(C)(C)C)CC1=O (configuration not stated) | -9.06 |
| c1ccc(CN2C[C@@H]3OCCN(c4ncccn4)[C@@H]3C2)nc1 | -12.9 |
| CCOc1ncccc1NC(=O)N1CCOCC1C (configuration not stated) | -5.63 |
| CN(C)c1ccnc(N2CCC(NCCOc3ccccc3)CC2)n1 | 19.6 |

| Compound | cytotoxicity at 70.5 h [%] |
| --- | --- |
| O=C1CSC(c2ccc(F)c(Cl)c2)c2c(n(C3CCOCC3)[nH]c2=O)N1 (configuration not stated) | 10.3 |
| O=C(c1cnc(-c2ccco2)s1)N1CCOc2ncccc21 | -1.16 |
| COCCN(C)C[C@@H]1CN(C(=O)c2c(C)cccc2OC)C[C@@H]1CO | -4.17 |
| Cc1cnn(CC2CCCCN2C(=O)c2csc(C)n2)c1 (configuration not stated) | -3.43 |
| Cc1ccc(CN2CC[C@H]3OCC[C@@H](c4nc(C)no4)[C@H]3C2)cc1 | -11.4 |
| O=c1c(C(F)(F)F)cccn1Cc1nnc(-c2cccnc2)o1 | -0.729 |
| O=C(c1ccc(O)nc1)N1CCc2ccc(O)cc2C1 | -13 |
| Cc1nc(CN2CCN(c3cncc(Cl)n3)CC2)no1 | -9.09 |
| CCN(Cc1cccc2c1OCCO2)C(=O)NC(C)(C)C | -2.31 |
| COc1ccccc1[C@@H]1CN(CC(=O)N2CCCCC2)C[C@H]1C(=O)O | -7.8 |
| COC[C@]1(O)CCN(c2cc(N3CCOCC3)ncn2)CC1(C)C | -9.52 |
| CCCN1CCCn2nc(CNS(=O)(=O)c3cccc(F)c3)cc2C1 | -5.1 |
| CN(CCc1cnn(C)c1)C(=O)CN1C(=O)OC[C@@H]1c1ccccc1 | -5.22 |
| CC(=O)N[C@@H]1CN(Cc2ccccc2-n2nc(C)cc2C)C[C@H]1C(C)C | -7.15 |
| CCOCC(O)CN1CCN(C(=O)c2cccc(F)c2)CC1 (configuration not stated) | -7.93 |
| CC(C)c1ncc2c(n1)CN(Cc1nnc(Cc3ccccc3)o1)CC2 | -5.27 |
| COc1ccc(CC(=O)N2CCc3nc(C(=O)N(C)C)sc3CC2)cc1 | -4 |
| Cc1noc(C)c1CN1CCn2c(CN3CCN(C)CC3)cnc2C1 | -14.6 |
| Cc1nn(C)c(C)c1-c1cc(-c2cnn(C)c2C2CC2)c(C#N)c(N)n1 | -12.7 |
| CN1N=C(C(=O)Nc2cc(F)ccc2OCC2CCCO2)CCC1=O (configuration not stated) | -20.2 |
| CSCc1nc(CNC(=O)c2cnn(C(C)C)c2)cs1 | -11.2 |
| Cc1noc(C(C)N2CCN(Cc3nc(C)c(C)o3)CC2)n1 (configuration not stated) | -3.69 |
| CCc1ccc(C2CC(=O)Nc3n[nH]cc32)o1 (configuration not stated) | 0.796 |

| Compound | cytotoxicity at 70.5 h [%] |
| --- | --- |
| CCN1CCN(CCNC(=O)c2ccn(-c3ccc(F)cc3)n2)CC1 | -3.79 |
| CN(C)S(=O)(=O)N1CCC(C(O)c2ccc(Cl)cc2)CC1 (configuration not stated) | -10.4 |
| COCC[C@]1(O)CCN(Cc2nc(C(C)C)cs2)C[C@H]1C | -6.41 |
| CC(C)c1nc(CN(C)C(=O)CNS(=O)(=O)c2cccs2)no1 | 46.6 |
| CC(=O)N1CCCC1c1cc(N2CCN(CC3CC3)CC2)cc(C)n1 (configuration not stated) | -1.76 |
| COc1ccccc1OC1CN(c2ccncc2)C1 | -4.23 |
| CCNC(=O)N1CC2=CC(C)(C)COc3ccc(OC)c(c32)C1 | -6.22 |
| Cc1noc(C)c1CN1CC[C@H]2OCC[C@@H](C(=O)NCC3CC3)[C@H]2C1 | -8.02 |
| Cc1cc(-c2nn(C)c(Cl)c2CN2CC[C@H](CO)[C@@H](O)C2)no1 | 8.05 |
| CNc1cnc(CC2COCCN(CCOc3ccccc3)C2)cn1 (configuration not stated) | -1.63 |
| Cc1cccc(N2CCC(N3CCC4(CCCNC4=O)C3)CC2)c1C (configuration not stated) | 10.3 |
| CNCc1ccc([C@@H]2CN(C)C[C@H]2C(N)=O)cc1 | 19.9 |
| CC(C)C(=O)N1CC[C@H]2N(C)CC[C@@]2(C(=O)Nc2ccccc2)CC1 | -10.2 |
| CC(C)C(NCc1ccc(Cn2cncn2)cc1)c1ccc(F)cn1 (configuration not stated) | -0.795 |
| O=C(Cc1cccs1)NCC1(O)CCc2ccccc2C1 (configuration not stated) | -7.27 |
| CCOCC1CN(CCN(C)C)Cc2cnn(CC3CCCC3)c21 (configuration not stated) | 4.97 |
| O=C(CS(=O)(=O)c1ccccn1)NC1CCCc2ccccc21 (configuration not stated) | 1 |
| Cc1nn(C)c(C)c1OCC(=O)NCC(O)c1ccsc1 (configuration not stated) | 0.375 |
| CCCS(=O)(=O)NC(=O)c1ccc(Br)o1 | 1.65 |
| O=c1oc(-c2ccc(F)cc2)nn1CN1CCN(CC2CC2)CC1 | -21.3 |
| CCN1CCCC(O)(CN(C)Cc2ccc(C)o2)C1 (configuration not stated) | -10.6 |
| Cc1nccn1C1CCCN(C(=O)Cc2cn3ccccc3n2)C1 (configuration not stated) | 16.9 |
| Cc1ccccc1-c1noc(CN2CCC(N3CCNC3=O)CC2)n1 | 40.4 |

| Compound | cytotoxicity at 70.5 h [%] |
| --- | --- |
| O=C(CCS(=O)(=O)C1CCCC1)NCCc1cccnc1 | -6.71 |
| CC(=O)N1CCCN(C(=O)c2oc(Br)cc2C)CC1 | -3.38 |
| CCOCCNC1(c2ccc(Cl)cc2)CCOCC1 | 9.63 |
| CCOC(=O)N[C@H]1C[C@@H](C(=O)NCc2cccc(Cl)c2)N(C)C1 | -20.9 |
| O=C(CNc1cccc(S(=O)(=O)C(F)F)c1)Nc1ccccc1 | -5.1 |
| CC(C)NC(=O)N1CC(=O)c2sc(Nc3ccc(C#N)cc3)nc2C1 | -7.13 |
| COCC(=O)NCc1cc(=O)n2c(n1)CN(Cc1nccs1)CCC2 | -5.03 |
| O=C1NC[C@@]2(C(=O)O)CN(Cc3cccc(CN4CCOCC4)c3)C[C@@H]12 | 1.62 |
| OC1(CNC2CCN(Cc3ccncc3)CC2)CCc2ccccc21 (configuration not stated) | -5.39 |
| CCOC(=O)CSc1nnc([C@@H](N)CC(C)C)o1 | -6.75 |
| O=C(CN1CCCC1Cn1cncn1)NCCOc1cccc(F)c1 (configuration not stated) | -14.6 |
| CCc1ncc(C(=O)N2CCCOC(Cn3cccn3)C2)cn1 (configuration not stated) | -0.891 |
| C=C(C)CNC(=O)C1CCC(=O)N(C2CCCC2)C1 (configuration not stated) | -2.49 |
| Cc1cnn(CC2CCCN2C(=O)CCc2nc3ccccc3[nH]2)c1 (configuration not stated) | -15.5 |
| O=C1O[C@@H]2CN(Cc3ccsc3)C[C@@H]2N1Cc1ccccn1 | 2.38 |
| O=C(CCc1c(F)cccc1F)NS(=O)(=O)c1ccc2c(c1)OCCO2 | -6.92 |
| COCCC(=O)N1CCC2(COCc3cnc(-c4cccnc4)nc32)C1 (configuration not stated) | -6.92 |
| Cc1noc(C)c1CCC(=O)N1CCCC(n2cccn2)C1 (configuration not stated) | -0.943 |
| CN(C)C(=O)N1C[C@@H]2CC[C@H](C1)N(Cc1nnc(-c3ccco3)o1)C2 | 10.9 |
| CC(C)CC(=O)N1CCc2ccc(S(=O)(=O)N3CCN(C)CC3)cc2C1 | -8.6 |
| O=C(c1ccccc1-c1ccccc1)N1C[C@@H]2CNC[C@]2(C(=O)O)C1 | 1.22 |
| CC(C)c1nc(CN(C)C2CCN(CCn3cc(C#N)cn3)C2)no1 (configuration not stated) | -14.7 |
| OC(COc1ccccc1Br)COC1CCOCC1 (configuration not stated) | 0.581 |

| Compound | cytotoxicity at 70.5 h [%] |
| --- | --- |
| Cc1nc(CN(C)C2CCCN(c3cccnn3)C2)nc2ccccc12 (configuration not stated) | 1.21 |
| CC(C)Cc1ncc2c(n1)CN(c1nccc(NC(C)C)n1)C2 | 2.52 |
| CN(CCCNC(=O)c1ccc(C#N)cc1)CC(F)(F)F | 5.13 |
| Cc1nn(C)c2c(NCc3cccnc3)nc(C(C)C)nc12 | 12.4 |
| O=C(c1ccnnc1)N1C[C@H]2CCC[C@@]2(COCc2ccccn2)C1 | -3.81 |
| Cc1c(C2N3C[C@]4(C)CN2C[C@](C)(C3)C4=O)[nH]c(=O)[nH]c1=O (some centres not stated) | -11.7 |
| CC(C)NC(=O)Cn1cc(-c2ccccc2)ncc1=O | -7.17 |
| Cc1nc(C2CN(Cc3scnc3C)CCO2)cc(N(C)C)n1 (configuration not stated) | 5.46 |
| Fc1ccccc1C1(CNC2CCOC3(CCOCC3)C2)CCCC1 (configuration not stated) | -9.34 |
| Cc1nccn1CCCNc1nccnc1C#N | 44.8 |
| CO[C@H]1CN(Cc2ccc(F)c(F)c2)C[C@@]12CCCO2 | -2.35 |
| CCC(CC)CN1CCN(CC(=O)Nc2ccc3nsnc3c2)CC1 | 3.54 |
| COCCNS(=O)(=O)c1ccc(Cl)c(C(=O)N(C)Cc2sccc2C)c1 | -12.1 |
| O=C(c1ccncc1)N1CC[C@@H]2CN(C3CCOCC3)CCO[C@@H]2C1 | -9.58 |
| C[C@H]1CN(c2ccccn2)C[C@@]12CCN(c1cccnc1)C2=O | -2.67 |
| O=C1N(Cc2cccnc2)CCC12CCCN(c1ncccn1)C2 (configuration not stated) | 17.3 |
| Cc1cccc(CN2CCN(C(=O)c3cc(C4CC4)[nH]n3)CC2)c1 | -4.75 |
| CCCn1nc2c(cc1=O)CN(CC(=O)Nc1nnc(C)s1)CC2 | -22 |
| O=C(NCCCC(=O)N1CCN(CC2CC2)c2ccccc21)C1CC1 | -7.6 |
| O=C(Cn1ccc2sccc2c1=O)NCc1ccccc1F | -5.13 |
